Assay results published in patent publication US20230107216A1, “PANTETHEINE DERIVATIVES AND USES THEREOF” (Comet Therapeutics, Inc., priority 2018, published 2023).
Where two headings read alike, the source gives them in different places.

Legend:
[1] = system: Propionic Acidemia (PA) primary fibroblasts Tsi 6337; test: Mitochondrial respiration, XFe96 Extracellular Flux Analyzer (OCR/ECAR), PA fibroblasts Tsi 6337; type: cell-based; settings: Homo sapiens, Fibroblast
Description: The effect of the compounds of the present disclosure on mitochondrial respiration was measured with a XFe96 Extracellular Flux Analyzer (Seahorse Bioscience, Agilent Technologies) and Oxygen consumption Rate (OCR) and Extracellular acidification rate (ECAR) determined.
Cell culture and treatments. Primary adherent fibroblasts were cultured in minimum essential medium (MEM) (Gibco, 25030081) supplemented with 2 mM L-Glutamine (Gibco, 25030081), 15% fetal bovine serum (FBS) (Gibco, 26400044) and 1% penicillin/streptomycin (Gibco, 5140122) at 37° C. and 5% CO2. Cells were collected for either passaging or experiment at ˜70-80% confluence. Cells were obtained by trypsinization and seeded at 20000 cells/well in cell culture microplates (Seahorse Bioscience, 101085-004) and allowed to adhere for 16 hours in culture media.
By profiling different primary cells and/or optimizing their culture media or environmental components one can select cell lines and/or conditions that are appropriate for the biological or disease model. In the present example, 24 hours prior to OCR and ECAR profiling, media was changed to Dulbecco's Modified Eagle Medium (DMEM, Agilent Seahorse 103575-100) with the appropriate supplements for the different primary cells (10 mM glucose, 2 mM L-glutamine, 1 mM pyruvate, 10% FBS; 1 mM glucose, 2 mM L-glutamine, 1 mM pyruvate, 10% FBS; 10 mM glucose, 10% FBS; 5 mM glucose 10% FBS; 1 mM glucose 10% FBS). Cells used in this example were: Propionic Acidemia (PA) (GM00371, GM03590 Coriell Institute for Medical Research, Tsi 6337, Tsi 4626, Tsi 3618 Trans-Hit Bio), Methylmalonic Acidemia (MMA) (GM01673, Coriell Institute for Medical Research, Tsi 5224 Trans-Hit Bio), Branched chain ketoacid dehydrogenase kinase (BCKDK) (GM00612, GM00649 Coriell Institute for Medical Research), Subnormal activation of pyruvate dehydrogenase complex (PDH) (GM01503 Coriell Institute for Medical Research), Very long-chain acyl-CoA dehydrogenase (VLCAD) (GM17475), Leigh Syndrome (LS) (GM03672, GM13411 Coriell Institute for Medical Research), Pyruvate Carboxylase Deficiency (PC) (GM00444 Coriell Institute for Medical Research), Glutaric Acidemia-I (GA) (GM10653), Friedreich's Ataxia (FXN) (GM04078 Coriell Institute for Medical Research, Huntington's disease (HD) (GM21756 Coriell Institute for Medical Research), Ornithine Transcarbamylase Deficiency (OTC) (GM12756 Coriell Institute for Medical Research), Kearns-Sayre Syndrome (KSS) (GM06225 Coriell Institute for Medical Research).
One hour before the assay, the cells were washed with freshly prepared unbuffered serum free-Seahorse XF Assay medium (Seahorse Bioscience, North America, USA, 103575-100) with the same supplements as for the previous 24 hour incubation.
After baseline measurements of OCR, cells were challenged with compounds of the present disclosure at different concentrations (10 to 50 μM) or vehicle (DMSO, 0.1%) and a post-compound baseline was recorded. OCR was measured after sequentially adding to each well 1 μg/ml oligomycin (inhibitor of ATP synthase Sigma-Aldrich, 753531), then maximal OCR was determined with carbonyl cyanide 4-(trifluoromethoxy) phenylhydrazone (FCCP, Sigma-Aldrich, C2920), (uncoupler of oxidative phosphorylation) and 0.5 μM of rotenone (Sigma-Aldrich, R8875) plus antimycin A (Sigma-Aldrich, A8674) (inhibitors of mitochondrial complex I and III) for determination of rotenone-antimycin insensitive respiration together with Hoechst for nuclear staining in situ when normalized to cell counts. After the analysis and nuclear staining, the XFp microplate was transferred to the Cytation 5, and the nuclear images were captured, the individual nuclei were identified and counted by BioTek Gen5 software. Data were expressed as pmol of O2 per minute and normalized by nuclear staining and baselined to pre-compound addition.
Assay conditions were as stated below.
Assay specifics on assay conditions are indicated below when readouts were normalized to cell counts. […]

[2] = system: Methylmalonic Acidemia (MMA) primary fibroblasts Tsi 5224; test: Mitochondrial respiration, XFe96 Extracellular Flux Analyzer (OCR/ECAR), MMA fibroblasts Tsi 5224; type: cell-based; settings: Homo sapiens, Fibroblast;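 as to Increase in Maximal Respiratory Capacity AUC: relative to vehicle DMSO control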
Procedure, shortened: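 Primary fibroblasts (20000 cells/well) were held 24 h in supplemented DMEM before Seahorse OCR/ECAR profiling. Compounds at 10 to 50 μM or 0.1% DMSO were injected after baseline, then oligomycin 1 μg/ml, FCCP, and rotenone/antimycin A 0.5 μM. Values were normalized to Hoechst nuclear counts, baselined to pre-compound, and expressed relative to vehicle.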

[3] = system: primary fibroblasts (healthy controls and PA, MMA, BCKDK, PDH, VLCAD, LS, PC, GA, VLCFA, KSS, FXN, HD); test: Measurement of ROS (H2DCFDA) in primary fibroblasts; type: cell-based, human; settings: Homo sapiens, procedure Example 812
Description: Primary adherent fibroblasts were cultured in minimum essential medium (MEM) (Gibco, 25030081) supplemented with 2 mM L-Glutamine (Gibco, 25030081), 15% fetal bovine serum (FBS) (Gibco, 26400044) and 1% penicillin/streptomycin (Gibco, 5140122) at 37° C. and 5% CO2. Cells were collected for either passaging or experiment at ˜70-80% confluence. Cells were obtained by trypsinization and seeded in cell culture microplates either white plate (Thermo Fisher Scientific, 152028) for luminescent measurement or black plate (Thermo Fisher Scientific, 165305) for fluorescent based read out for different assays listed below. Cells were obtained by trypsinization and […] were seeded and allowed to adhere for 16-18 hours to have confluency around 70-80% in the cell well with culture media. After 24 hours prior to measurements (37° C., 5% CO2) media was changed to Dulbecco's Modified Eagle Medium (DMEM, Agilent Seahorse cat #103575-100) with the appropriate supplements as stated below.
Primary fibroblasts assayed were Healthy controls (GM00041, GM05659, GM23974 Coriell Institute for Medical Research), Propionic Acidemia (PA) (GM00371, GM03590 Coriell Institute for Medical Research, Tsi 6337 Trans-Hit Bio), Methylmalonic Acidemia (MMA) (GM01673, Coriell Institute for Medical Research, Tsi 5224, Tsi 4290 Trans-Hit Bio), Branched chain ketoacid dehydrogenase kinase (BCKDK) (GM00612, GM00649 Coriell Institute for Medical Research), Subnormal activation of pyruvate dehydrogenase complex (PDH) (GM01503 Coriell Institute for Medical Research), Very long-chain acyl-CoA dehydrogenase (VLCAD) (GM17475), Leigh Syndrome (LS) (GM03672, GM13411 Coriell Institute for Medical Research), Pyruvate Carboxylase Deficiency (PC) (GM00444 Coriell Institute for Medical Research), Glutaric Acidemia-I (GA), Impaired VLCFA oxidation (VLCFA) (GM13262), Kearns-Sayre Syndrome (KSS) (GM06225 Coriell Institute for Medical Research), Friedreich's Ataxia (FXN), Huntington's disease (HD) (GM21756 Coriell Institute for Medical Research). Next, cells were treated with compounds (10 μM) and ROS H2DCFDA (22 μM) dye for 2 hours in PA, MMA lines and for 24h for the other fibroblast lines. Kinetic read was started immediately with a i3x plate reader (492/527 nm) for 60 minutes.
A total dead cell count was performed as described in Example 817 and only alive cells were used for analysis.

[4] = system: monocyte-derived M1 macrophages; test: M1 differentiation assay (macrophage TNFα, IL6, IL10 ELISA, FACS); type: cell-based, human
Description: Monocytes were isolated by positive isolation with CD14+ microbeads (Miltenyi, 130-050-201). Monocytes were 99% viable and were 96% purity as analyzed by FACS and CD14+ (BD, 563561). 100,000 monocytes along with compounds at the dose of 10 and 50 μM were allowed to differentiate to macrophages with 10 ng/ml GMCSF (R&D, 15-GM-050/CF) in RPMI complete media (Invitrogen, 22400089) with 15% FBS (Hyclone SV30087.03) and 1% Penicillin-Streptomycin (Gibco, 15140-122). On day 2 and 4 half the media was refreshed with fresh GM-CSF and compounds at 10 and 50 μM dose. On day 6 the macrophages were matured with GMCSF, IFNγ (R&D 285-IF-100/CF) and LPS (Sigma, L6143) in the presence of 10 μM and 50 μM of compounds. After 24h, supernatant was collected for the measurement of TNFα (DKW, 1117202) IL6 (DKW, 1110602), IL10 (DKW, 1110003) by ELISA. Macrophages were detached gently on ice with EDTA (Invitrogen, 15575-038) and analyzed by FACS (BD LSR Fortessa, 853492). Cells were stained for live/dead dye, surface and intracellular markers with fixation/permeabilization solution (BD, 554714) and ALIVE/DEAD™ Fixable Near-IR Dead Cell Stain Kit (BD, L34976), mouse anti human CD86 APC (BD, 555660), mouse anti-human CD163 PE (BD, 556018), mouse anti-human CD68 FITC (BD, 562117) or isotype controls anti-mouse IgG1 κ PE (BD, 559320) and anti-mouse IgG1 κ APC (BD, Anti mouse IgG1 κ APC (BD, 55571). Mature M1 macrophages were defined as CD86+CD68+CD163− and increase in TNFα, IL6, and decrease in IL-10.

[5] = PA Tsi 6337, assay condition A (10 mM glucose, 2 mM L-glutamine, 1 mM pyruvate, 10% FBS), read-out: Increase in Maximal Respiratory Capacity AUC
[6] = MMA Tsi 5224, assay condition A (10 mM glucose, 2 mM L-glutamine, 1 mM pyruvate, 10% FBS), read-out: Increase in Maximal Respiratory Capacity AUC
[7] = PA Tsi 6337, assay condition D (1 mM glucose, 10% FBS), read-out: Increase in Maximal Respiratory Capacity AUC
[8] = FXN GM04078, Assay Condition C, read-out: Decreased ROS by at least 10%
[9] = FXN GM04078, Assay Condition C, read-out: Decreased ROS by at least 30%

CC(C(=O)SCCNC(=O)CCNC(=O)[C@H](O)C(C)(C)CO)[C@H](C)O (stereo partly drawn) [Compound 1248, (2R)-2,4-dihydroxy-N-{2-[(2-{[(3S)-3-hydroxy-2-methylbutanoyl]sulfanyl}ethyl)carbamoyl]ethyl}-3,3-dimethylbutanamide]
activation at 10 µM [1, 5]: ≥ 10%
activation at 10 µM [2, 6]: ≥ 10%

COC(=O)C(=O)SCCNC(=O)CCNC(=O)[C@H](O)C(C)(C)COP(=O)(O)O [Compound 60, Methyl (R)-2-((2-(3-(2-hydroxy-3,3-dimethyl-4-(phosphonooxy)butanamido)propanamido)ethyl)thio)-2-oxoacetate]
inhibition at 10 µM ([3]; Fibroblast, KSS GM06225, Assay Condition C, read-out: Decreased ROS by at least 10%): ≥ 10%
inhibition at 10 µM ([3]; Fibroblast, KSS GM06225, Assay Condition C, read-out: Decreased ROS by at least 30%): ≥ 30%
activation at 10 µM [1, 7]: ≥ 10%
activation at 10 µM ([2]; MMA Tsi 5224, assay condition D (1 mM glucose, 10% FBS), read-out: Increase in Maximal Respiratory Capacity AUC): ≥ 10%

CC[C@H](O)CC(=O)SCCNC(=O)CCNC(=O)[C@H](O)C(C)(C)CO [Compound 1249, (2R)-2,4-dihydroxy-N-{2-[(2-{[(3S)-3-hydroxypentanoyl]sulfanyl}ethyl)carbamoyl]ethyl}-3,3-dimethylbutanamide]
inhibition at 10 µM ([3]; Fibroblast, VLCAD GM17475, Assay Condition C, read-out: Decreased ROS by at least 10%): ≥ 10%
inhibition at 10 µM ([3]; Fibroblast, VLCAD GM17475, Assay Condition C, read-out: Decreased ROS by at least 30%): ≥ 30%
inhibition at 10 µM [3, 8]: ≥ 10%
inhibition at 10 µM [3, 9]: ≥ 30%
activation at 10 µM [1, 5]: ≥ 10%

CC(C)(CO)[C@@H](O)C(=O)NCCC(=O)NCCSC(=O)[C@@H](N)CC(=O)O [Compound 390]
activation at 10 µM ([1]; PA Tsi 6337, assay condition D (1 mM glucose, 10% FBS), read-out: Increase in Spare Capacity AUC): ≥ 10%
activation at 10 µM [2, 6]: ≥ 10%

COC(=O)CCC(=O)SCCNC(=O)CCNC(=O)[C@H](O)C(C)(C)COC(=O)CN [Compound 1228]
activation at 10 µM [1, 5]: ≥ 10%
activation at 10 µM [1, 7]: ≥ 10%
activation at 10 µM [2, 6]: ≥ 10%

CC(C)(COC(=O)CCC(=O)O)[C@@H](OC(=O)CCC(=O)O)C(=O)NCCC(=O)NCCSC(=O)CCC(=O)O [Compound 1233]
inhibition at 10 µM ([3]; Fibroblast, BCKD GM00612, Assay Condition A, read-out: Decreased ROS by at least 10%): ≥ 10%
inhibition at 10 µM ([3]; Fibroblast, VLCFA GM13262, Assay Condition C, read-out: Decreased ROS by at least 30%): ≥ 30%
inhibition at 10 µM [3, 8]: ≥ 10%
inhibition at 10 µM [3, 9]: ≥ 30%
activation at 10 µM [1, 5]: ≥ 10%
activation at 10 µM ([2]; MMA Tsi 5224, assay condition C (10 mM glucose, 10% FBS), read-out: Increase in Spare Capacity AUC): ≥ 50%

COC(=O)CC(O)(CC(=O)OC)C(=O)SCCNC(=O)CCNC(=O)[C@H](O)C(C)(C)CO [Compound 418]
% decrease in Live Macrophage Cells ([4]; 50 uM): ≥20%
activation at 10 µM ([4]; Homo sapiens, Macrophage, 10 uM, read-out: % Increase in IL-10 Secretion): ≥ 30%
inhibition at 10 µM ([4]; Homo sapiens, Macrophage, 10 uM, read-out: % decrease in Macrophage IL-6 Secretion): ≥ 30%
inhibition at 10 µM ([4]; Homo sapiens, Macrophage, 10 uM, read-out: % decrease in Macrophage TNFα Secretion): ≥ 30%
activation at 10 µM [1, 7]: ≥ 10%
